Like-named read-outs stand apart in the source and are kept apart here.
Tested on: SARS-CoV-2
Format: cell-based
Details: for LRV (log reduction value), reduction of virus compared to the virus control / Virus Titer: solution at 90%
[1] = incubation 15 seconds at 37° C.
[2] = incubation 15 minutes at 37° C.

CCO [Ethanol]
LRV (log reduction value), reduction of virus compared to the virus control [1]: 4.3
Virus Titer [1]: 0.67 Log10 CCID50 of virus per mL
LRV (log reduction value), reduction of virus compared to the virus control (incubation 5 minutes at 37° C.): >4.3
Virus Titer (incubation 5 minutes at 37° C.): <0.67 Log10 CCID50 of virus per mL
LRV (log reduction value), reduction of virus compared to the virus control [2]: >4.3
Virus Titer [2]: <0.67 Log10 CCID50 of virus per mL
virus titer (baseline reached) (positive control, contact time not given): 0.67 log10 CCID50/ml

From US20230233600A1, “IMPROVED VIRUCIDAL FORMULATIONS” (priority 2020, published 2023)
